These results are taken from patent US20070293467A1, “Demethyl-Cantharidin Platinum Complex Isomers and Their Use” (priority 2004, published 2007).

Where two headings read alike, the source gives them in different places.

What all share (type): cell-based
The subject of assay [1] is liver cancer cell line PLC/5. Kind of assay: MTT tetrazolium microculture growth inhibition, PLC/5. The note with it: for IC50: PLC/5, 72 h exposure, MTT, read-out: Average growth-inhibitory activity (IC50); for activity against liver cancer cell line PLC/5: in words, from Table 5. The method, then:
(§1) DMC platinum complexes, together with controls cisplatin, carboplatin, and oxaliplatin were screened for an in vitro antitumor activity against various tumorous cell lines, using a tetrazolium microculture assay.
(§2) Drugs: Drugs to be tested were dissolved in a complete medium at twice the highest concentration to be used, followed by filtration (0.22 μm) sterilization. A series of log dilutions were made from each drug solution using complete medium. All drug solutions were prepared 10 minutes before addition to cells.
(§3) In vitro drug exposure: For each drug to be tested, trypsinized cells were adjusted to a concentration of 2×10^5 cells/ml in a complete medium, and 0.1 ml of the cell suspension was added to each of 24 wells in a 96-well microculture plate. The plate was then incubated at a standard condition for 24 hours in order to allow the cells to be adhered to the bottom of the well and restart exponential growth. To each well of the control culture and drug/concentration combinations, 0.1 ml of the complete medium and drug solution were added, respectively. Each drug/concentration combination consisting of four replicates while the control culture consisting of 12 replicates. The twelve replicates of a blank control containing 0.2 ml of the complete medium were set aside to account for the background. The cultures were incubated for additional 72 hours. All tests were repeated at least 3 times on different occasions.
(§4) MTT assay: The MTT (tetrazolium) assay was used to determine the growth-inhibitory effects of different drugs. A 5 mg/ml solution of MTT (3-(4,5-dimethylthiazol-2-yl)-2,5-diphenyltetrazolium bromide) was prepared in phosphate buffer saline (pH 7.4), sterilized by filtration (0.22 μm) and stored at −20° C. To each well, 0.02 ml of an MTT solution was added, and the plate was incubated for 4 hours under standard conditions. The medium in each well was then removed, and 0.1 ml of DMSO (dimethylsulfoxide) was added to each well to solubilize the colored dye produced from the metabolic reduction of MTT. The amount of reduced MTT was measured by spectrophotometric means (570 nm).
(§5) Data analysis: A mean value of OD was determined for all of the 12 control wells. For each concentration of each drug, A mean OD of the 4 wells was determined. All the mean ODs were subtracted from the blank to account for the background. The “Percent of Control” values were determined and plotted.

The test system of another assay is HT-29. As to the kind of experiment: MTT tetrazolium microculture growth inhibition, HT-29. As to conditions: 72 h exposure, read-out: Average growth-inhibitory activity (IC50). The method, then:
as §1, §2, §3, §4, §5

The next assay relates to Huh-7. As to the kind of experiment: MTT tetrazolium microculture growth inhibition, Huh-7. The note with it: for IC50: Huh-7, 72 h exposure, MTT, read-out: Average growth-inhibitory activity (IC50); for in vitro antitumor activity against Huh-7 cell: in words, from Table 5. The method, then: as §1, §2, §3, §4, §5
A further assay has as its system Huh-7 resistance. As to the kind of experiment: MTT tetrazolium microculture growth inhibition, Huh-7 resistance. The note with it: for cross-resistance of Huh-7: Huh-7 resistance vs Huh-7, within experimental errors; for IC50: Huh-7 resistance, 72 h exposure, MTT, read-out: Average growth-inhibitory activity (IC50); for resistance of Huh-7 to the drug: Huh-7 resistance vs Huh-7, from IC50 of Table 5. The method, then: as §1, §2, §3, §4, §5

Another assay concerns HCT-116. Kind of assay: MTT tetrazolium microculture growth inhibition, HCT-116. The note with it: 72 h exposure, read-out: Average growth-inhibitory activity (IC50). The procedure: as §1, §2, §3, §4, §5
The subject of assay [2] is colorectal cancer cell line Colo320. Kind of assay: MTT tetrazolium microculture growth inhibition, Colo320. As to conditions: for IC50: Colo320, 72 h exposure, MTT, read-out: Average growth-inhibitory activity (IC50); for activity against colorectal cancer cell line Colo320: in words, from Table 5. The method, then: as §1, §2, §3, §4, §5
A further assay has as its system L1210. As to the kind of experiment: MTT tetrazolium microculture growth inhibition, L1210. As to conditions: 72 h exposure, read-out: Average growth-inhibitory activity (IC50). The procedure:
as §1, §2, §3, §4, §5

The next assay deals with SK-Hep. As to the kind of experiment: MTT tetrazolium microculture growth inhibition, SK-Hep. The note with it: for IC50: SK-Hep, 72 h exposure, MTT, read-out: Average growth-inhibitory activity (IC50); for in vitro antitumor activity against SK-Hep: in words, from Table 5. The method, then: as §1, §2, §3, §4, §5
Another assay deals with L1210 resistance. Kind of assay: MTT tetrazolium microculture growth inhibition, L1210 resistance. As to conditions: for resistance / cross-resistance of L1210: L1210 resistance vs L1210; for IC50: L1210 resistance, 72 h exposure, MTT, read-out: Average growth-inhibitory activity (IC50). The procedure: as §1, §2, §3, §4, §5
The next assay deals with SK-Hep resistance. As to the kind of experiment: MTT tetrazolium microculture growth inhibition, SK-Hep resistance. As to conditions: for IC50: SK-Hep resistance, 72 h exposure, MTT, read-out: Average growth-inhibitory activity (IC50); for resistance of SK-Hep to the drug: SK-Hep resistance vs SK-Hep, from IC50 of Table 5. The method, then: as §1, §2, §3, §4, §5

Usually IC50 stands for the concentration that gives 50% inhibition. As for `O=C1[O][Pt]2([NH][C@@H]3CCCC[C@H]3[NH]2)[O]C(=O)C2C3CCC(O3)C12` (mixture of isomers) [Trans-DMC platinum complex, Trans-Racemic DMC Platinum Complex], the IC50 in assay [1] was 4.64 ± 1.01 µM; in the assay with HT-29, 2.09 ± 0.69 µM; in the assay with Huh-7 it was 4.47 ± 0.79 µM; in the assay on Huh-7 resistance it was 5.99 ± 0.52 µM; with HCT-116, 0.81 ± 0.29 µM; in assay [2], 2.54 ± 0.95 µM. Also, the IC50 in the assay with L1210 is 140 ± 60 nM; in the assay with SK-Hep, 4.27 ± 1.03 µM; with L1210 resistance, 0.17 ± 0.05 µM; in the assay with SK-Hep resistance it was 5.01 ± 0.68 µM. The “activity against liver cancer cell line PLC/5” value in assay [1] is reported as “effective activities”. In addition, in the assay on Huh-7, the “in vitro antitumor activity against Huh-7 cell” value was “effective in vitro antitumor activities”. Further, in the assay with Huh-7 resistance, the “cross-resistance of Huh-7” value is recorded as “no cross-resistance”. In addition, in [2], the “activity against colorectal cancer cell line Colo320” value is given as “more effective”. Besides, the “in vitro antitumor activity against SK-Hep” value in the assay on SK-Hep is recorded as “effective in vitro antitumor activities”. The “resistance / cross-resistance of L1210” value in the assay with L1210 resistance is given as “no cross-resistance”.
As for `N.N.O=C([O-])C1(C(=O)[O-])CCC1.[Pt+2]` [Carboplatin, reference compound], the IC50 is 80.2 ± 15.8 µM in assay [1]; 134 ± 15 µM in the assay on HT-29; 117 ± 9.82 µM with Huh-7; 176 ± 54 µM with Huh-7 resistance; 69.4 ± 14.7 µM in the assay on HCT-116; 41.7 ± 5.44 µM in [2]. The IC50 in the assay with L1210 is 12800 ± 2140 nM; in the assay on SK-Hep, 134 ± 10.3 µM; with L1210 resistance, 126 ± 17.2 µM; in the assay on SK-Hep resistance it was 358 ± 28 µM. The “resistance of Huh-7 to the drug” value with Huh-7 resistance came to 1.5 fold. In addition, the “resistance / cross-resistance of L1210” value in the assay on L1210 resistance is given as “high resistance”. In addition, the “resistance of SK-Hep to the drug” value with SK-Hep resistance is listed as “about 2.7 fold”.
Regarding `O=C1[O][Pt]2([NH][C@H]3CCCC[C@H]3[NH]2)[O]C(=O)C2C3CCC(O3)C12` (stereo partly drawn) [Cis-DMC platinum complex], the IC50 in assay [1] is 17.1 ± 1.18 µM; with Huh-7 it was 19 ± 1.46 µM; in the assay with Huh-7 resistance it was 17.1 ± 0.77 µM; in the assay on HCT-116 it was 12.6 ± 1.67 µM; in assay [2], 5.98 ± 0.97 µM; in the assay with SK-Hep, 19.4 ± 2.23 µM. Also, the IC50 in the assay on SK-Hep resistance amounted to 22.7 ± 1.11 µM. The “cross-resistance of Huh-7” value with Huh-7 resistance is listed as “no cross-resistance”.
With `N.N.[Cl][Pt][Cl]` [Cisplatin, reference compound], the IC50 in assay [1] came out at 6.92 ± 1.46 µM; with HT-29, 12.1 ± 2.25 µM; in the assay with Huh-7 it was 11.7 ± 1.21 µM; in the assay with Huh-7 resistance, 25.6 ± 3.5 µM; in the assay with HCT-116, 4.14 ± 0.8 µM; in assay [2], 2.54 ± 0.48 µM. Further, the IC50 came out at 820 ± 140 nM with L1210, 13.5 ± 1.84 µM with SK-Hep, 14 ± 1.49 µM in the assay with L1210 resistance and 51.8 ± 7.01 µM in the assay with SK-Hep resistance. Moreover, in the assay with Huh-7 resistance, the “resistance of Huh-7 to the drug” value was 1.5 fold. The “resistance / cross-resistance of L1210” value with L1210 resistance was “high resistance”. The “resistance of SK-Hep to the drug” value with SK-Hep resistance came out at 4 fold.
`O=C1OC(=O)C2C3CCC(O3)C12` (stereo not shown) [DMC, Demethylcantharidin, reference compound]: the IC50 in assay [1] (PLC5) came out at 25.3 ± 1.98 µM; in the assay on HT-29 (Homo sapiens) it was 32.7 ± 2.57 µM; with Huh-7 (Homo sapiens), 32.9 ± 3.68 µM; with Huh-7 resistance (Homo sapiens), 26.9 ± 3.03 µM; with HCT-116 (Homo sapiens), 23.2 ± 2.06 µM; in [2] (Homo sapiens, COLO 320), 23.9 ± 1.42 µM. In addition, the IC50 with L1210 (Mus musculus) came out at 31200 ± 1790 nM; in the assay with SK-Hep (SKHep) it was 19 ± 2.01 µM; in the assay on L1210 resistance (Mus musculus), 45.5 ± 3.69 µM; in the assay on SK-Hep resistance (SKHep), 25.5 ± 1.69 µM.
As to `O=C1[O][Pt]2([NH][C@@H]3CCCC[C@H]3[NH]2)[O]C1=O` [Oxaliplatin, reference compound], the IC50 was found to be 6.48 ± 3.19 µM in assay [1], 8.97 ± 4.56 µM in the assay with Huh-7, 1 ± 0.31 µM in [2] and 9.09 ± 4.24 µM in the assay on SK-Hep.
As for `O=C1[O][Pt]2([NH][C@@H]3CCCC[C@H]3[NH]2)[O]C(=O)C2C3CCC(O3)C12` (stereo partly drawn) [Trans-R,R(−)-DMC platinum complex, Trans-R,R-(−)-DMC platinum complex], the IC50 in assay [1] is 3.23 ± 1.13 µM; in the assay on HT-29, 0.92 ± 0.57 µM; with Huh-7, 3.65 ± 1.1 µM; with Huh-7 resistance, 26.9 ± 6.14 µM; in the assay on HCT-116, 0.45 ± 0.27 µM; in assay [2], 2.45 ± 0.83 µM. In addition, the IC50 in the assay with L1210 turned out to be 760 ± 90 nM; with SK-Hep it was 6.63 ± 2.21 µM; in the assay with L1210 resistance it was 0.99 ± 0.1 µM; with SK-Hep resistance, 4.7 ± 0.95 µM. For the same molecule, the “activity against liver cancer cell line PLC/5” value in assay [1] is recorded as “effective activities”. Further, the “in vitro antitumor activity against Huh-7 cell” value with Huh-7 was “effective in vitro antitumor activities”. The “activity against colorectal cancer cell line Colo320” value in assay [2] is “more effective”. Also, in the assay with SK-Hep, the “in vitro antitumor activity against SK-Hep” value was “effective in vitro antitumor activities”. In addition, in the assay with L1210 resistance, the “resistance / cross-resistance of L1210” value is reported as “no cross-resistance”.
Turning to `O=C1[O][Pt]2([NH][C@H]3CCCC[C@@H]3[NH]2)[O]C(=O)C2C3CCC(O3)C12` (stereo partly drawn) [Trans-S,S(+)-DMC platinum complex, Trans-S,S-(+)-DMC platinum complex], the IC50 in assay [1] is 6.26 ± 1.87 µM; in the assay with HT-29, 3.07 ± 0.73 µM; with Huh-7, 8.46 ± 1.51 µM; with Huh-7 resistance, 16.2 ± 2.6 µM; in the assay on HCT-116, 2.04 ± 0.41 µM; in assay [2] it was 4.96 ± 1.32 µM. In addition, the half-inhibitory concentration (IC50) in the assay with L1210 was found to be 110 ± 50 nM; in the assay with SK-Hep, 6.15 ± 1 µM; in the assay with L1210 resistance, 0.12 ± 0.06 µM; in the assay with SK-Hep resistance, 8.09 ± 0.89 µM. In addition, the “activity against liver cancer cell line PLC/5” value in assay [1] is recorded as “effective activities”. Also, the “in vitro antitumor activity against Huh-7 cell” value in the assay with Huh-7 is “effective in vitro antitumor activities”. The “activity against colorectal cancer cell line Colo320” value in assay [2] is “more effective”. The “in vitro antitumor activity against SK-Hep” value with SK-Hep was “effective in vitro antitumor activities”. The “resistance / cross-resistance of L1210” value with L1210 resistance is “no cross-resistance”.
